{"source": "patent US20090274626A1", "about": "“TARGETING TNF-alpha CONVERTING ENZYME(TACE)- DEPENDENT GROWTH FACTOR SHEDDING IN CANCER THERAPY” (The Regents of the University of California, priority 2005, published 2009)", "key": {"T4-2 cells [1]": {"tested_on": "T4-2 cells", "assay": "3D lrECM (Matrigel) culture of T4-2 cells: reversion of malignant phenotype, polarity, colony size", "type": "cell-based, human", "description": "(§1) For 3D lrECM culture, T4-2 cells were seeded at 21000 cells per cm^2 on top of Matrigel, overlaid with H14 medium containing 5% Matrigel (BD Biosciences, San Jose, Calif.), and treated with 80 nM AG1478, 20 μM TAPI-2 or the relevant vehicle controls.\n(§2) Silencer™ siRNAs against TACE (Ambion, Austin, Tex.) were also transfected in according to the Reverse Transfection protocol of Invitrogen. siRNAs against the following TACE sense strand sequences were transfected either individually (100 nM) or as a pool (33.3 nM each): […]tt (SEQ ID NO: 2), GCAGCAt[…]tt (SEQ ID NO:3) and […]tt (SEQ ID NO: 4). For 3D culture assays, T4-2 cells were trypsinized post-transfection and plated as single cells in Matrigel. Knockdown was assessed by western blot from a parallel transfection 48 hrs post-transfection. Random siRNA sequence was used as a negative control.\nIndirect immunofluorescence. Colonies were solubilized from […] culture by shaking in PBS/0.05M EDTA on ice for 30 mins, fixed in 4% paraformaldehyde, permeabilized, stained with anti-α6-integrin (Chemicon, Temecula, Calif.) and counterstained with DAPI.\n(§3) Quantitation of colony size in the 3D lrECM culture was performed by image analysis. Representative images were captured using a digital camera attached to a phase contrast microscope. The high resolution digital images were then analyzed using NIH Image analysis software and the cross-sectional area of each colony was determined for many colonies. This process was hand-curated to ensure that aggregates of colonies were not measured as a single colony."}, "T4-2 cells [2]": {"tested_on": "T4-2 cells", "assay": "Proliferation assay (WST) of T4-2 cells in 2D culture", "type": "cell-based, human", "description": "Proliferation assays. HMT3522 cells were seeded in 96 well plates and treated (in triplicate) as described in the figure legends. To determine relative growth, 0.1 volumes of WST cell proliferation analysis reagent (Roche, Indianapolis, Ind.) was added to the medium and its formazan metabolite was measured by absorbance at 460 nm."}, "T4-2 cells [3]": {"tested_on": "T4-2 cells", "assay": "ELISA of AREG and TGFα shed into conditioned medium of T4-2 cells", "type": "cell-based, human", "details": "TAPI-2-treated T4-2 cells", "description": "as §2\n(§4) ELISA. Equal numbers of cells were washed three times and allowed to condition medium for 90 minutes. The amount of AREG and TGFα accumulating in the medium was determined by using specific ELISA assays (R & D Systems, Minneapolis, Minn.) according to the manufacturer's instructions."}, "[4]": {"tested_on": "signaling kinases downstream of the EGFR", "assay": "Western blot of basal activity of signaling kinases downstream of the EGFR in T4-2 cells", "type": "cell-based, human", "details": "addition of TAPI-2", "description": "Western blotting. Cells were lysed in 50 mM Tris.HCl pH 7.5, 150 mM NaCl, 0.5% NP40 supplemented with protease and phosphatase inhibitors (Calbiochem, San Diego, Calif.) and clarified by centrifugation. 50 μg of each sample was fractionated by SDS-PAGE, transferred to nitrocellulose membranes and probed with antibodies against the following proteins: phospho-MAPK, Total MAPK, phospho-p70S6-Kinase, (Cell Signaling Technology, MA). E-cadherin (BD Biosciences, CA) was used as a loading control. Blots were developed using Supersignal West Femto (Pierce, Rockland, Ill.). Images were captured using a Fluor Chem 8900 imager (Alpha Innotech, San Leandro, Calif.)."}, "T4-2 cells [5]": {"tested_on": "T4-2 cells", "assay": "Relative proliferation of T4-2 cells with AG 1478 with or without TAPI-2 (sensitization, FIG. 5)", "type": "cell-based, human", "details": "10 μM TAPI-2; shift of AG 1478 proliferation curve", "description": "FIG. 5. […] T4-2 cells were allowed to adhere to 48 well plates. Drugs were added at the indicated concentrations. Conditions were analyzed in triplicate. For comparison, all data were normalized to the 100%.\n(FIG. 5) In this experiment, T4-2 cells were allowed to adhere to 48 well plates. Drugs, AG 1478 and TAPI-2, were added at various concentrations of 0.001 μM, 0.01 μM, 0.1 μM, 1 μM, 10 μM and 100 μM. Conditions were analyzed in triplicate. For comparison, all data were normalized to the 100%."}, "T4-2 cells [6]": {"tested_on": "T4-2 cells", "assay": "Cytotoxicity of TAPI-2 at the concentration used", "type": "cell-based, human", "details": "data not shown"}, "S1 cells": {"tested_on": "S1 cells", "assay": "Acinar morphogenesis of S1 cells in the presence of soluble EGF", "type": "cell-based, human", "details": "data not shown", "description": "Cell culture All reagents were purchased from SIGMA (St. Louis, Mo.) except where otherwise noted. HMT3522 cells were cultivated on 2D and 3D substrata in H14 medium, a 50:50 mix of DMEM/F12 (UCSF Cell culture Facility, San Francisco, Calif.) supplemented with 5 μg/ml prolactin, 250 ng/ml insulin, 1.4×10^−6 M hydrocortisone, 10^−10 M β-estradiol, 2.6 ng/ml sodium selenite and 10 μg/ml transferrin. S1 cells were additionally supplemented with 10 ng/ml EGF. In various experiments, cells were supplemented with AREG, TACE, TGFα. In all cases, AREG and TGFα were used at the same molar concentration as EGF ([…])."}, "T4-2 cells [7]": {"tested_on": "T4-2 cells", "assay": "ELISA of EGFR ligands in conditioned medium of T4-2 3D lrECM cultures", "type": "cell-based, human", "details": "TAPI-2 treatment as printed in legend", "description": "as §2, §4"}, "[8]": {"tested_on": "T4-2 cells expressing AREGΔTM", "assay": "3D culture of T4-2 cells expressing soluble AREG (AREGΔTM): colony size and morphology", "type": "cell-based, human", "details": "T4-2 cells producing soluble AREG", "description": "as §1\n(§5) Amphotropic retroviruses were generated by transfection (Lipofectamine; Invitrogen, Carlsbad, Calif.) of the Phoenix packaging cell line (a gift of Dr. Gary Nolan, Stanford) with pBM-IRES-Puro or derivatives containing the AREG or TGFα open reading frames. Two million phoenix cells per 6 cm dish were plated the day prior to transfection and transfected with 2 μg of the appropriate retroviral construct. Retrovirus-containing culture medium was harvested after 48 hrs, supplemented with polybrene to 5 μg/ml and added to HMT3522 cells at 30-50% confluence. Pools of stable infectants were selected in 1 μg/ml puromycin.\n(§6) Cloning of pro-AREG and pro-TGFα. The open reading frames of these genes were amplified by PCR from T4-2 cDNA. […]\nas §3, with “Representative images were captured using a digital camera attached to a phase contrast microscope.” left out"}, "[9]": {"tested_on": "T4-2 cells expressing TGFαΔTM", "assay": "3D culture of T4-2 cells expressing soluble TGFα (TGFαΔTM): colony size and morphology", "type": "cell-based, human", "details": "T4-2 cells producing soluble TGFα", "description": "as §1, §5, §6\nas §3, with “Representative images were captured using a digital camera attached to a phase contrast microscope.” left out"}, "MCF-7": {"tested_on": "MCF-7", "assay": "ELISA of AREG shedding from MCF-7 cells", "type": "cell-based, human", "details": "MCF-7, 20 μM TAPI-2, 90 minutes", "description": "(§7) FIG. 8. Suppression of growth factor shedding by TAPI-2 in a panel of breast cancer cell lines. A: Three AREG-expressing breast cancer cell lines were identified. Equal number of cells were treated with 20 μM TAPI-2 or vehicle for 90 minutes and AREG shedding was quantified by ELISA. B: Two breast cancer cell lines expressing TGFα were identified and treated as described in (A). TAPI-2 suppresses TGFα shedding.\nas §4"}, "HCC1500": {"tested_on": "HCC1500", "assay": "ELISA of AREG and TGFα shedding from HCC1500 cells", "type": "cell-based, human", "details": "HCC1500, 20 μM TAPI-2, 90 minutes", "description": "as §7, §4"}, "ZR75B": {"tested_on": "ZR75B", "assay": "ELISA of AREG shedding from ZR75B cells", "type": "cell-based, human", "details": "20 μM TAPI-2, 90 minutes", "description": "as §7, §4"}, "MDA-MB-468": {"tested_on": "MDA-MB-468", "assay": "ELISA of TGFα shedding from MDA-MB-468 cells", "type": "cell-based, human", "details": "MDA-MB-468, 20 μM TAPI-2, 90 minutes", "description": "as §7, §4"}, "TACE": {"molecular_target": "TACE (Homo sapiens, UniProt P78536)", "sequence (P78536 215-824)": "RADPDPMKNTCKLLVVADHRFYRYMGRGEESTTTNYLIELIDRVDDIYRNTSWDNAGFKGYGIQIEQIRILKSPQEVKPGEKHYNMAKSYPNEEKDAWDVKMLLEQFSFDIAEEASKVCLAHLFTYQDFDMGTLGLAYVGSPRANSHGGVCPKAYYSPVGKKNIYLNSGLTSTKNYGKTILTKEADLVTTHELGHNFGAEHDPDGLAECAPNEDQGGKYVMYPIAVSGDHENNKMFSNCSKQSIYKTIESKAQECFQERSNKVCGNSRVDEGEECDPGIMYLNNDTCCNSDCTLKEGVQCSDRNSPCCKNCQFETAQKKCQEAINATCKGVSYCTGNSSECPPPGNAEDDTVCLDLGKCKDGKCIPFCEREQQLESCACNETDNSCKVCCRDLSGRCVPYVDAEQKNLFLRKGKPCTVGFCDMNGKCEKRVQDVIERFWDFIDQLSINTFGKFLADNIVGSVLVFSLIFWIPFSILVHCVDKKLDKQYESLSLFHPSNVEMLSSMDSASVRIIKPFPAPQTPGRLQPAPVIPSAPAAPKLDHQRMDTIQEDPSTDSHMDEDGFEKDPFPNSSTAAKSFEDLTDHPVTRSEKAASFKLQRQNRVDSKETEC", "details": "cited from earlier work"}, "[10]": {"tested_on": "LPS-stimulated human peripheral blood mononuclear cells (PBMC)", "details": "cited from earlier work"}}, "note": "Entries after “also recorded” stand apart in the source; their conditions may differ.", "data": [{"compound": "CC(C)C[C@H](CC(=O)NO)C(=O)N[C@H](C(=O)N[C@@H](C)C(=O)NCCN)C(C)(C)C", "note": "[TAPI-2, N—(R)-[2-(Hydroxyaminocarbonyl)methyl]-4-methylpentanoyl-L-t-butyl-alanyl-L-alanine, 2-aminoethyl Amide]", "values": [{"measurement": "restoration of epithelial polarity (basal localization of α6-integrin)", "setting": "T4-2 cells [1]; 3D culture, TAPI-2 vs vehicle", "value": "restoration of epithelial polarity"}, {"measurement": "colony size (cross-sectional area) vs vehicle", "setting": "T4-2 cells [1]; 3D culture, four days, p<0.001", "value": "significantly smaller than those formed by cells treated with vehicle alone; also recorded: significantly different from controls"}, {"measurement": "reversion of the malignant phenotype of T4-2 cells", "setting": "T4-2 cells [1]; 3D lrECM culture, 80 nM AG1478 or 20 μM TAPI-2 vs vehicle", "value": "resulted in a reversion of the malignant phenotype"}, {"measurement": "TAPI-2-induced reduction of T4-2 proliferation on addition of EGF", "setting": "T4-2 cells [2]; 2D culture, soluble/exogenous EGF added", "value": "overcome by addition of exogenous EGF; also recorded: completely overcome by addition of soluble EGF"}, {"measurement": "proliferation of T4-2 cells", "setting": "T4-2 cells [2]; 2D cultures, vs 0 μM TAPI-2", "value": "dose-dependent decrease in proliferation; also recorded: dose-dependent reduction in T4-2 cell proliferation"}, {"measurement": "shedding of AREG (ELISA of CM)", "setting": "T4-2 cells [3]", "value": "suppresses the shedding of both AREG and TGFα"}, {"measurement": "shedding of TGFα (ELISA of CM)", "setting": "T4-2 cells [3]", "value": "suppresses the shedding of both AREG and TGFα"}, {"measurement": "basal activities of signaling kinases downstream of the EGFR", "setting": "[4]", "value": "significantly suppressed"}, {"measurement": "sensitization of T4-2 cells to small molecule EGFR inhibitor (AG1478)", "setting": "T4-2 cells [5]", "value": "sensitizes T4-2 cells to the effect of the EGFR inhibitor, AG1478; also recorded: four-fold sensitization"}, {"measurement": "cytotoxicity", "setting": "T4-2 cells [6]", "value": "not cytotoxic at the concentration used"}, {"measurement": "interference with normal acinar morphogenesis of S1 cells", "setting": "S1 cells", "value": "nor did it interfere with the ability of S1 cells to execute normal acinar morphogenesis"}, {"measurement": "levels of shed ligands in conditioned medium (FIG. 6C)", "setting": "T4-2 cells [7]", "value": "reduced"}, {"measurement": "response to TAPI-2 by criteria of colony size and morphology", "setting": "[8]", "value": "completely resistant to TAPI-2"}, {"measurement": "response to TAPI-2 by criteria of colony size and morphology", "setting": "[9]", "value": "completely resistant to TAPI-2"}, {"measurement": "AREG shedding", "setting": "MCF-7", "value": "significantly reduced ligand shedding"}, {"measurement": "AREG shedding", "setting": "HCC1500", "value": "significantly reduced ligand shedding"}, {"measurement": "TGFα shedding", "setting": "HCC1500", "value": "significantly reduced ligand shedding"}, {"measurement": "AREG shedding", "setting": "ZR75B", "value": "significantly reduced ligand shedding"}, {"measurement": "TGFα shedding", "setting": "MDA-MB-468", "value": "significantly reduced ligand shedding"}]}, {"compound": "TRWLVYFSRPYLVAT (synthetic peptide shown to inhibit TACE activity)", "values": [{"measurement": "binding to TACE", "setting": "TACE", "value": "bind to TACE"}, {"measurement": "TNF-alpha release", "setting": "[10]", "value": "inhibit the TNF-alpha release"}]}]}
